Test results as given in a melting point compilation (Tetko et al.).

Settings: a range is the spread between reports

Compared with NCCS, CCCCCCCCCS is lower in melting point: 96 to 98 °C for the first, -20.1 to -20 °C for the second.

Compared with c1ccc(Cc2ccc(-c3ccccc3)cc2)cc1, Ic1ccc(-c2ccccc2)cc1 is higher in melting point: 85 to 86 °C for the first, 112 to 114 °C for the second.

First: Oc1ccccc1I
Second: CC(=O)Nc1ccccc1O
The melting point of the first is lower: 38.5 to 43 °C for the first, 205 to 208 °C for the second.

First: CCCCCCCCCCCCI
Second: CCCCCCCCCC(=O)O
The melting point of the first is lower: -3 to 0.3 °C for the first, 31 to 32 °C for the second.

Compared with ClCCOCCCl, CCCCCO is lower in melting point: -51.9 to -47 °C for the first, -79 to -78 °C for the second.

Compared with Clc1ccc(C(c2ccc(Cl)cc2)C(Cl)Cl)cc1, S=C=Nc1ccc(Cl)cc1 is lower in melting point: 109 to 110 °C for the first, 45 to 46 °C for the second.

First: CCCCCCCCCCCCCCCCCC(=O)CCCCCCCCCCCCCCCCC
Second: CCCCCCCCCCCCCCCCCCCCCCCCC
The melting point of the first is higher: 87 to 89 °C for the first, 53 to 54 °C for the second.

First: CCCCS(=O)CCCC
Second: CCCCCSCCCCC
The melting point of the first is higher: 32.6 to 33 °C for the first, -51.3 to -51 °C for the second.

Compared with O=Cc1ccccc1Cl, COc1ccccc1C=O is higher in melting point: 9 to 12.4 °C for the first, 37 to 38 °C for the second.

Compared with Cc1nc2ccccc2[nH]1, Cc1cc(O)c2ccccc2n1 is higher in melting point: 176 °C for the first, 234 to 235 °C for the second.

Compared with CCOC(=O)c1cc(C)n[nH]1, CCOC(N)=O is lower in melting point: 82 to 87 °C for the first, 48 to 49 °C for the second.

First: Nc1cccc([N+](=O)[O-])c1
Second: O=[N+]([O-])c1ccc(O)c(O)c1
The melting point of the first is lower: 112 to 114 °C for the first, 175 to 176 °C for the second.

First: O=C(O)c1ccc(C(=O)O)s1
Second: O=C(O)c1cccs1
The melting point of the first is higher: 358 to 359 °C for the first, 128 to 130 °C for the second.

First: CCCCNC(=S)NCCCC
Second: C=CCCCCCCC
The melting point of the first is higher: 64 to 66 °C for the first, -83.2 to -81 °C for the second.

Compared with Oc1cccc(C(F)(F)F)c1, FC(F)(F)c1ccc(Cl)c(Cl)c1 is lower in melting point: -2 to -1.8 °C for the first, -12.5 to -12 °C for the second.

First: COC(=O)c1ccccc1OC(C)=O
Second: COC(=O)c1c[nH]c2ccccc12
The melting point of the first is lower: 51.5 to 52 °C for the first, 150 to 151 °C for the second.

First: COc1ccc([N+](=O)[O-])c(OC)c1
Second: COc1ccc(Cl)cc1N
The melting point of the first is lower: 74 to 76.5 °C for the first, 82 to 83 °C for the second.

First: CC(C)=C(C)C(C)C
Second: CCC(C(C)C)C(C)C
The melting point of the first is higher: -113 °C for the first, -122 °C for the second.

First: ClC(Cl)C(Cl)(Cl)Cl
Second: ClC(Cl)=C(Cl)C(Cl)(Cl)Cl
The melting point of the first is higher: -29 to -28.8 °C for the first, -73 to -72.9 °C for the second.

First: Cc1n[nH]c(=S)[nH]c1=O
Second: Cc1cc(C)c(O)c(C)c1
The melting point of the first is higher: 218 to 220 °C for the first, 72 to 73 °C for the second.

First: O=C1c2ccccc2CCc2ccccc21
Second: Brc1ccc2c(c1)Cc1ccccc1-2
The melting point of the first is lower: 30 to 33 °C for the first, 112 to 114 °C for the second.

Compared with Oc1cccc2ccccc12, Oc1cccc2cccnc12 is lower in melting point: 95 to 96 °C for the first, 74 to 76 °C for the second.

Compared with O=[N+]([O-])c1c(Cl)cc(Cl)cc1Cl, Nc1c(Br)cc([N+](=O)[O-])cc1[N+](=O)[O-] is higher in melting point: 71 to 72 °C for the first, 152 to 154 °C for the second.

First: COC(=O)CCCCC(=O)OC
Second: C=CCCCCC(=O)O
The melting point of the first is higher: 8 to 10.3 °C for the first, -6.5 to -6 °C for the second.

Compared with OCc1ccccc1-c1ccccc1, O=c1c(-c2ccccc2)c1-c1ccccc1 is higher in melting point: 49 to 50 °C for the first, 119 to 120 °C for the second.

First: Oc1c(F)cccc1F
Second: O=C(O)c1c(F)cc(F)cc1F
The melting point of the first is lower: 38 to 39.5 °C for the first, 141 to 143 °C for the second.

Compared with O=C(O)c1cc(I)cc(I)c1O, NS(=O)(=O)c1cc(C(=O)O)ccc1Cl is higher in melting point: 231 to 236 °C for the first, 257 to 258 °C for the second.

Compared with Oc1c(Br)c(Br)c(Br)c(Br)c1Br, NC(=O)c1c(F)c(F)c(F)c(F)c1F is lower in melting point: 226 to 230 °C for the first, 147 to 148 °C for the second.

Compared with N#CCCC(Br)(C#N)CBr (centres undefined), BrCCCBr is lower in melting point: 50 to 52 °C for the first, -34.2 to -34 °C for the second.

First: CC(=O)c1cccc(C(C)=O)c1
Second: O=C(O)C=Cc1cccc(Br)c1
The melting point of the first is lower: 32 to 36 °C for the first, 177 to 180 °C for the second.

First: O=NN1CN2CN(C1)CN(N=O)C2
Second: O=C1CCC(N2C(=O)c3ccccc3C2=O)C(=O)N1 (centres undefined)
The melting point of the first is lower: 204 to 207 °C for the first, 270 to 275 °C for the second.

First: CCBr
Second: CCC(C)N (centres undefined)
The melting point of the first is lower: -119 °C for the first, -105 to -104 °C for the second.

Compared with CN(C)C(=O)Nc1ccc(Cl)cc1, CC(=O)Nc1ccc(C=O)cc1 is lower in melting point: 170 to 174 °C for the first, 156 to 160 °C for the second.

First: Brc1cccc(I)c1
Second: Brc1ccccc1
The melting point of the first is higher: -9.3 to -9 °C for the first, -31 to -30.6 °C for the second.

First: O=Cc1cc(O)ccc1O
Second: COc1cc(CO)ccc1O
The melting point of the first is lower: 98 to 99 °C for the first, 114 to 115 °C for the second.

First: NC(=O)c1ccccc1Cl
Second: O=C(Cl)c1ccccc1C(=O)Cl
The melting point of the first is higher: 142 to 143 °C for the first, 12 to 15.5 °C for the second.

Compared with c1ccc2ncncc2c1, C=Cc1ccc2ccccc2c1 is higher in melting point: 47 to 48 °C for the first, 65 to 66 °C for the second.

First: Fc1cc(F)cc(F)c1
Second: CCc1cccc(CC)c1
The melting point of the first is higher: -6 to -5.5 °C for the first, -84 to -83.9 °C for the second.

Compared with OCCNCCO, CCC/C=C/C(=O)O is higher in melting point: 28 to 29 °C for the first, 33 to 36.5 °C for the second.

First: O=[N+]([O-])c1ccc(O)cc1
Second: NC(=O)NCc1ccccc1
The melting point of the first is lower: 112 to 115 °C for the first, 148 to 149 °C for the second.

First: CC(C=CC1=C(C)CCCC1(C)C)=CC=CC(C)=CCO
Second: CC(C)=O
The melting point of the first is higher: 63 to 63.5 °C for the first, -95 to -94 °C for the second.

First: Clc1cccs1
Second: CC(C)CCC(C)(C)C
The melting point of the first is higher: -72 to -71.9 °C for the first, -106 °C for the second.
